Laboratory results reported in patent publication US10975119B2, “Selective cysteine protease inhibitors and uses thereof” (Genesis Technologies Limited, priority 2011, dated 2021).
Where a name gives a salt, the structure may show the parent alone. Read-outs that look alike come from different tables or passages of the source.

What was measured:
Type in all cases: biochemical
[1] = target: T1, Caspase-10 (Homo sapiens, UniProt Q92851); experiment: Caspase-10 inhibitor screening assay (BioVision kit, AEVD-AFC); conditions: for inhibition at 10 µM: read-out: % Inhibition at 10 uM Casp10; for inhibition at 100 µM: read-out: % Inhibition at 100 uM Casp10
T1 construct: mixing the compounds with the respective active caspases; purchased BioVision K160-100
T1 sequence (Q92851 220-415 limits assumed): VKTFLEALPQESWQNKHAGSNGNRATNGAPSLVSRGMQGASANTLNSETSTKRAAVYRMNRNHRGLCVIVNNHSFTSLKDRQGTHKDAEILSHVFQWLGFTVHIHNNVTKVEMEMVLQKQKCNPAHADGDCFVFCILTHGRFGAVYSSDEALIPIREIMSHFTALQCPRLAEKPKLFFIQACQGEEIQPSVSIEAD
T1 sequence (Q92851 416-521 limits assumed): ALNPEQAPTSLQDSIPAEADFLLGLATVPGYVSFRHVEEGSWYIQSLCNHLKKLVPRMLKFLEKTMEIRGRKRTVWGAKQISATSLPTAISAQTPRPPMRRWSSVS
Protocol: (§1) The efficacy of an array of compounds as an inhibitor of the activity of Caspases 1 through 10 were assessed by using the respective Caspase Inhibitor Drug Screening Kits (Caspase-1 Catalog #: K151-100, Caspase-2 Catalog #: K152-100, Caspase-3 Catalog #: K153-100, Caspase-4 Catalog #: K154-100, Caspase-5 Catalog #: K155-100, Caspase-6 Catalog #: K156-100, Caspase-7 Catalog #: K157-100, Caspase-8 Catalog #: K158-100, Caspase-9 Catalog #: K159-100, Caspase-10 Catalog #: K160-100, BioVision) following the instructions of the manufacturer. […] Active caspases cleaved their respective synthetic substrates to release free AFC, which was then quantified by fluorometry.
(§2) Briefly, the compounds were first tested at 2 concentrations (10 uM and 100 uM final) to determine if there is a hit. […] Each condition was tested in duplicates. […] For some samples, a smaller range of concentrations was tested depending on the % Inhibition results at 10 uM and 100 uM. Results were summarized in Tables 2, 3, and 4 herein after. Table 2 represents the IC50 values (uM) of the test compounds as inhibitors of the activity of the various caspases.
(§3) (*) RFU (no inhibitor control)—RFU (compound at a specific concentration)
(§4) RFU (no inhibitor control)

[2] = target: T2, Caspase-8 (Homo sapiens, UniProt Q14790); experiment: Caspase-8 inhibitor screening assay (BioVision kit, IETD-AFC); conditions: for inhibition at 10 µM: read-out: % Inhibition at 10 uM Casp8; for inhibition at 100 µM: read-out: % Inhibition at 100 uM Casp8
T2 construct: mixing the compounds with the respective active caspases; purchased BioVision K158-100
T2 sequence (Q14790 217-374 limits assumed): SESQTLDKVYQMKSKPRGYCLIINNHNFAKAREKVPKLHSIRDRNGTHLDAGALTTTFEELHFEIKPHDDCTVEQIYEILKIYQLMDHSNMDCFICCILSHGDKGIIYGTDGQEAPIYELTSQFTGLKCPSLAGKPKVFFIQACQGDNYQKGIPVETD
T2 sequence (Q14790 385-479 limits assumed): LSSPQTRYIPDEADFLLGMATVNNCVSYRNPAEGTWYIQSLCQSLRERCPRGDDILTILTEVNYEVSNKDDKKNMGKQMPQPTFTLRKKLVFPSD
Protocol: as §1, §2, §3, §4

[3] = target: T3, Caspase-2 (Homo sapiens, UniProt P42575); experiment: Caspase-2 inhibitor screening assay (BioVision kit, VDVAD-AFC); conditions: for inhibition at 10 µM: read-out: % Inhibition at 10 uM Casp2; for inhibition at 100 µM: read-out: % Inhibition at 100 uM Casp2; for IC50: read-out: IC50 Casp2
T3 construct: mixing the compounds with the respective active caspases; purchased BioVision K152-100
T3 sequence (P42575 170-325 limits assumed): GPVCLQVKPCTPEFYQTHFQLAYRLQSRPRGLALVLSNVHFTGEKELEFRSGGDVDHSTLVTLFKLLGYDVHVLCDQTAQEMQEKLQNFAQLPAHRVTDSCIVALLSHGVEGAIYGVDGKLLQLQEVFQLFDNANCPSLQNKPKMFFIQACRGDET
T3 sequence (P42575 334-452 limits assumed): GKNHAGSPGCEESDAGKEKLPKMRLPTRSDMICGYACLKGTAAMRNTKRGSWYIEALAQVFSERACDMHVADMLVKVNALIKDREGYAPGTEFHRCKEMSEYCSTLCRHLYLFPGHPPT
Protocol: as §1, §2, §3, §4

[4] = target: T4, Caspase-1 (Homo sapiens, UniProt P29466); experiment: Caspase-1 inhibitor screening assay (BioVision kit, YVAD-AFC); conditions: for inhibition at 10 µM: read-out: % Inhibition at 10 uM Casp1; for inhibition at 100 µM: read-out: % Inhibition at 100 uM Casp1
T4 construct: mixing the compounds with the respective active caspases; purchased BioVision K151-100
T4 sequence (P29466 120-297 limits assumed): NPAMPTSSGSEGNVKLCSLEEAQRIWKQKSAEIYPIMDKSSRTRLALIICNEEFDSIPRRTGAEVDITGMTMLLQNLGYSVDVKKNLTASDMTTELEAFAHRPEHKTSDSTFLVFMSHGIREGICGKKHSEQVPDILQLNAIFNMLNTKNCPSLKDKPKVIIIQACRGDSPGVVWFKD
T4 sequence (P29466 317-404 limits assumed): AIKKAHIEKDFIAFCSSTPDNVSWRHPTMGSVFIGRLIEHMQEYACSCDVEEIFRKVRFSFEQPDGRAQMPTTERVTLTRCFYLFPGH
Protocol: as §1, §2, §3, §4

| SMILES | inhibition at 10 µM [1] [%] | inhibition at 100 µM ([1]; 100 uM) [%] | IC50 ([1]; read-out: IC50 Casp10) [µM] | inhibition at 10 µM [2] [%] | inhibition at 100 µM [2] [%] | IC50 ([2]; read-out: IC50 Casp8) [µM] | inhibition at 10 µM [3] [%] | inhibition at 100 µM [3] [%] | IC50 [3] [µM] | inhibition at 10 µM [4] [%] | inhibition at 100 µM [4] [%] | IC50 ([4]; read-out: IC50 Casp1) [µM] | inhibition at 10 µM ([2]; 10 uM) [%] | inhibition at 100 µM ([2]; 100 uM) [%] | IC50 ([4]; read-out: potency (IC50) against caspase-1) [µM] | % Inhibition at 100 uM Casp10 ([1]; 100 uM) [%] | % Inhibition at 100 uM Casp8 ([2]; 100 uM) [%] | IC50 ([1]; read-out: potency (IC50) against caspase-10) [µM] | IC50 ([2]; read-out: potency (IC50) against caspase-8) [µM] |
| --- | --- | --- | --- | --- | --- | --- | --- | --- | --- | --- | --- | --- | --- | --- | --- | --- | --- | --- | --- |
| CS(=O)(=O)/C(Cl)=C/[C@@H](N)CC(=O)O [Compound 4, Asp achlorovinyl methyl vinyl sulfone, Tosyl Salt] | 36 | 43 | > 100 | 6 | 13 | > 100 | 0 | 0 | > 100 | 0 | 0 | > 100 |  |  |  |  |  |  |  |
| CC(C)[C@H](NC(=O)[C@@H](NC(=O)[C@H](CC(=O)O)NC(=O)OCc1ccccc1)c1ccccc1)C(=O)N[C@H](/C=C/S(C)(=O)=O)CCC(=O)O [Compound 84, Z-Asp-Phg-Val-Glu methyl vinyl sulfone] | 2 | 0 | > 100 |  |  | > 100 | 0 | 3 | > 100 | 0 | 0 | > 100 | 9 | 10 |  |  |  |  |  |
| CS(=O)(=O)/C=C/[C@H](CC(=O)O)NC(=O)[C@@H](N)CCC(=O)O [Compound 22, Glu-Asp methylsulfone] | 15 | 14 | > 100 |  |  | > 100 | 12 | 13 | > 100 | 0 | 0 | > 100 | 3 | 7 |  |  |  |  |  |
| CC(C)[C@H](NC(=O)[C@H](CCC(=O)O)NC(=O)[C@H](Cc1c[nH]c2ccccc12)NC(=O)OCc1ccccc1)C(=O)N[C@H](/C=C/S(C)(=O)=O)CC(=O)O [Compound 40, Z-Trp-Glu-Val-Asp-methyl vinyl sulfone] | 80 | 99 | 3.29 |  |  | 5.93 | 1 | 10 | > 100 | 99 | 100 |  | 61 | 96 | 0.026 |  |  |  |  |
| CC(C)(C)[C@H](NC(=O)c1ccc2ncccc2c1)C(=O)N1CCCC1C(=O)N[C@H](/C=C/S(C)(=O)=O)CC(=O)O (stereo in doubt) [Compound 10, Quinoline-6-carbonyl-t-Leu-Pro-Asp methyl vinyl sulfone] | 65 | 98 | 4.67 |  |  | 14.7 | 3 | 6 | > 100 | 90 | 100 | 0.12 | 34 | 94 |  |  |  |  |  |
| CCOC(=O)/C=C/[C@@H](N)CC(=O)O [Compound 44, Asp ethyl vinyl ester tosyl salt] | 4 | 15 | > 100 |  |  | > 100 | 0 | 3 | > 100 | 0 | 0 | > 100 | 0 | 7 |  |  |  |  |  |
| CC(C)[C@H](NC(=O)OCc1ccccc1)C(=O)N[C@H](/C=C(\Cl)S(C)(=O)=O)CC(=O)O [Compound 2, Cbz-Val-Asp achlorovinyl methyl vinyl sulfone] | 0 | 48 | > 100 |  |  | > 100 | 0 | 0 | > 100 | 0 | 5 | > 100 | 2 | 49 |  | 31 | 33 |  |  |
| CS(=O)(=O)/C=C/[C@H](CC(=O)O)NC(=O)[C@H]1CCC(=O)N1 [Compound 24, (2-Pyrrolidinone-5-carbonyl)-Asp methyl vinyl sulfone] | 21 | 15 | > 100 |  |  | > 100 | 0 | 0 | > 100 | 3 | 10 | > 100 | 0 | 0 |  |  |  |  |  |
| CS(=O)(=O)/C=C/[C@H](CC(=O)O)NC(=O)[C@H]1CCCN1C(=O)[C@@H](NC(=O)[C@H](CC(=O)O)NC(=O)OCc1ccccc1)c1ccccc1 [Compound 30, Z-Asp-Phenylglycine-Pro-Asp-methyl vinyl sulfone] | 43 | 92 | 12.9 |  |  | 32.5 | 11 | 66 | 53.7 | 55 | 92 | 8 | 22 | 79 |  |  |  |  |  |
| CCOC(=O)/C=C/[C@H](CC(=O)O)NC(=O)[C@@H](NC(=O)[C@H](CCC(=O)O)NC(=O)[C@@H](NC(=O)OCc1ccccc1)C(C)C)c1ccccc1 [Compound 126, Z-Val-Glu-Phg-Asp-Ethyl Vinyl ester] |  |  |  |  |  | 0.08 |  |  | > 100 |  |  | 1 |  |  |  |  |  | 0.002 | 0.079 |
| CC(C)[C@H](NC(=O)c1ccc2ccccc2n1)C(=O)N[C@H](/C=C/S(C)(=O)=O)CC(=O)O [Compound 16, 2-Quinoline carbonyl-Val-Asp methyl vinyl sulfone] | 26 | 35 | > 100 |  |  | > 100 | 1 | 3 | > 100 | 0 | 0 | > 100 | 5 | 14 |  |  |  |  |  |
| CC(C)[C@H](NC(=O)OCc1ccccc1)C(=O)N[C@H](/C=C/S(C)(=O)=O)CC(=O)O [Compound 3, Z-Val-Asp methyl vinyl sulfone] | 15 | 50 | > 100 |  |  | > 100 | 0 | 0 | > 100 | 18 | 26 | > 100 | 0 | 23 |  |  |  |  |  |
| CC(C)(C)[C@H](NC(=O)c1ccc2ccccc2n1)C(=O)N1CC[C@@H]1C(=O)N[C@H](/C=C/S(C)(=O)=O)CC(=O)O [Compound 20, 2-Quinoline carbonyl-t-Leu-(Azetidine-2-carbonyl)-Asp methyl vinyl sulfone] | 42 | 93 | 12.5 |  |  | > 100 | 7 | 6 | > 100 | 81 | 99 | 1.4 | 8 | 23 |  |  |  |  |  |
